The nature of data set [1]: Visual assessment of the increase in solubility due to ectoine (clear vs cloudy solution). The class given is physicochemical. As to conditions: active compound incorporated at 1% (tiliroside) or 1.5% (5,7-dihydroxy-2-methylchromone). How it is done:
Firstly, 4% ectoine solutions are prepared in water and in a water/ethanol mixture (3:1). The active compound to be dissolved is subsequently incorporated into the two ectoine solutions in an amount of 1% and 1.5% respectively. The respective ectoine-free batches serve as comparison.

Data set [2] in a line: Solubility of PBSA in aqueous solubiliser solutions, dissolved fraction determined by HPLC. The class given is physicochemical. Conditions: thermodynamic from solid, filtered. How it is done:
Firstly, 4% aqueous solutions of ectoine, creatinine and pyrrolidonecarboxylic acid are prepared. The active compound PBSA is subsequently dispersed in the solution in excess. The pH of the suspension is adjusted to 4.6. Undissolved active compound is filtered off after stirring for 1 hour. The dissolved active-compound fraction is determined by high-performance liquid chromatography. The experiment without solubiliser serves as comparison. In the case of dissolution of PBSA in aqueous creatinine solution, the solubility is additionally determined at pH 5.7, i.e. in this case the pH is not restored to 4.6.

Where [3] appears, read: 4% of ectoine in ethanol/water 3:1.
The mark [4] stands for this setting: Ethanol/water 3:1, no ectoine (comparison).

The source of these data is US8293784B2, “α-amino acid derivatives for improving solubility” (Merck Patent GmbH, priority 2007, dated 2012).

Structures are written as SMILES. In brackets after ≈: the same amount, converted by molar mass. Read-outs that look alike come from different tables or passages of the source.

One may read the solubility as the concentration that dissolves in the medium under given conditions.

As to `Cc1cc(=O)c2c(O)cc(O)cc2o1` [5,7-Dihydroxy-2-methyl-chromone, 5,7-dihydroxy-2-methylchromone], the “Appearance of solution (visual solubility assessment)” value was “clear solution” in data set [1] (setting [3]) and “cloudy solution” in data set [1] (setting [4]).

Take `O=S(=O)(O)c1ccc2[nH]c(-c3ccccc3)nc2c1` [PBSA, 2-phenylbenzimidazole-5-sulfonic acid]: the solubility at 1 h in data set [2] (4% aqueous creatinine solution, pH 4.6, aqueous with cosolvent or surfactant or cyclodextrin, pH of the dispersion set to 4.6, stirred 1 hour, read-out: Solubility of PBSA in water comprising 4% of creatinine) was found to be 940 µg/mL (≈ 3430 µM); in data set [2] (4% aqueous creatinine solution, pH 5.7, aqueous with cosolvent or surfactant or cyclodextrin, pH of the dispersion 5.7 (pH not restored to 4.6), stirred 1 hour, read-out: Solubility of PBSA in water comprising 4% of creatinine), 8500 µg/mL (≈ 31000 µM); in data set [2] (4% aqueous ectoine solution, pH 4.6, aqueous with cosolvent or surfactant or cyclodextrin, pH of the dispersion set to 4.6, stirred 1 hour, read-out: Solubility of PBSA in water comprising 4% of ectoine), 600 µg/mL (≈ 2190 µM); in data set [2] (4% aqueous pyrrolidonecarboxylic acid solution, pH 4.6, aqueous with cosolvent or surfactant or cyclodextrin, pH of the dispersion set to 4.6, stirred 1 hour, read-out: Solubility of PBSA in water comprising 4% of pyrrolidonecarboxylic acid), 340 µg/mL (≈ 1240 µM); in data set [2] (water without solubiliser, pH 4.6, aqueous buffer, no solubiliser, pH of the dispersion set to 4.6, stirred 1 hour, read-out: Solubility of PBSA in water) it was 340 µg/mL (≈ 1240 µM).

`O=C(/C=C/c1ccc(O)cc1)OC[C@H]1O[C@@H](Oc2c(-c3ccc(O)cc3)oc3cc(O)cc(O)c3c2=O)[C@H](O)[C@@H](O)[C@@H]1O` [Tiliroside, tiliroside]: the “Appearance of solution (visual solubility assessment)” value in data set [1] (setting [3]) was “clear solution”; in data set [1] (setting [4]), “cloudy solution”.
